The numbers were not newly measured in patent US20200078478A1, “Structural molecule of peptide derivative for PSMA-targeting radiotherapy diagnosis and treatment” (priority 2018, published 2020), which cites them from elsewhere.

Each structure is given as a SMILES string.

For this series the following is noted: Lu-177 labeled, clinical treatment.

As usually defined, the half-life is the time in which the quantity being followed falls by half. For `O=C(O)CC[C@H](NC(=O)N[C@@H](CCCCNC(=O)[C@H](Cc1ccc2ccccc2c1)NC(=O)[C@H]1CC[C@H](CNC(=O)CN2CCN(CC(=O)O)CCN(CC(=O)O)CCN(CC(=O)O)CC2)CC1)C(=O)O)C(=O)O` [PSMA-617], the half-life was 10.8 h.
